Read-outs that look alike come from different tables or passages of the source.
Columns and labels:
[1] = molecular target: T1, truncated rat FAAH (rFAAH) (Rattus norvegicus, UniProt P97612); assay: Rat FAAH inhibition enzyme assay (14C-oleamide hydrolysis, Dixon plot); format: biochemical
T1 construct: The truncated rat FAAH (rFAAH) was expressed in E. coli and purified as described by Patricelli et al; made in house; host or cells: E. coli
T1 sequence (P97612 30-579 limits assumed): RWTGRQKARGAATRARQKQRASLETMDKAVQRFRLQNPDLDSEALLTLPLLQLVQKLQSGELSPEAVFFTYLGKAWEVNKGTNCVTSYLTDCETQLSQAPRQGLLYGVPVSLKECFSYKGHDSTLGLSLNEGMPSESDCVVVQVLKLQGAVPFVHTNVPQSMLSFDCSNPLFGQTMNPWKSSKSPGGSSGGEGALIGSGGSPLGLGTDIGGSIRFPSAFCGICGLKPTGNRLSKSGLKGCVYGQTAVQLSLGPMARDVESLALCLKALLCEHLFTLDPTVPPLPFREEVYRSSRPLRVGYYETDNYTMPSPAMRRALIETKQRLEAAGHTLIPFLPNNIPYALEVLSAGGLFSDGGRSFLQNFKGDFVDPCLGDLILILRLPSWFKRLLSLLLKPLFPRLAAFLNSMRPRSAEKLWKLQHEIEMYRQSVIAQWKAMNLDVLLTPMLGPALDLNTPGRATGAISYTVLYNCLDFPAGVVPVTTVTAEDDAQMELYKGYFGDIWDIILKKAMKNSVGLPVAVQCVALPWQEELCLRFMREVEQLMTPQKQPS
Protocol: The purified recombinant rFAAH was used in the inhibition assays unless otherwise indicated.
The ^14C-labeled oleamide (substrate) and oleic acid (product) were extracted with EtOAc and analyzed by TLC. The Ki of the inhibitor was calculated using a Dixon plot (standard deviations are provided in the Supporting Information tables).

FAAH = molecular target: T2, FAAH (UniProt O08914); assay: Proteome-wide serine hydrolase selectivity screening, FAAH; format: biochemical, human
T2 sequence (O08914 1-579): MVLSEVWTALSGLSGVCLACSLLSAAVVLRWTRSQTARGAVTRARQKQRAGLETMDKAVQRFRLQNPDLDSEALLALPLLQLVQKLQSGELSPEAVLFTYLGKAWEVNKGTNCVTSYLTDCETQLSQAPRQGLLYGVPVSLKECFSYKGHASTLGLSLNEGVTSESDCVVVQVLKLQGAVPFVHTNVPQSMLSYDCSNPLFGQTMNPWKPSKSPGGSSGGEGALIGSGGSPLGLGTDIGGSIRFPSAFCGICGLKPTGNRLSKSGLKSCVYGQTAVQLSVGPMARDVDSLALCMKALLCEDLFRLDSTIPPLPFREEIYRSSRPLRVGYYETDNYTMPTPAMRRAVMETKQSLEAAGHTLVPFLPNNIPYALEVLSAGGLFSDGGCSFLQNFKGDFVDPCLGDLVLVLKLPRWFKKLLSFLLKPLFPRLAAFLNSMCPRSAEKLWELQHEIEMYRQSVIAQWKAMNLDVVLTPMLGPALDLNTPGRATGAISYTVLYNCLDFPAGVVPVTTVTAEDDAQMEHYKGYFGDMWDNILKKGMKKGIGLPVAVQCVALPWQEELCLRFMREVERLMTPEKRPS

[2] = molecular target: T3, triacylglycerol hydrolase (TGH) (UniProt Q8VCT4); assay: Proteome-wide serine hydrolase selectivity screening, TGH; format: biochemical, human; details: selectivity screening
T3 sequence (Q8VCT4 1-565): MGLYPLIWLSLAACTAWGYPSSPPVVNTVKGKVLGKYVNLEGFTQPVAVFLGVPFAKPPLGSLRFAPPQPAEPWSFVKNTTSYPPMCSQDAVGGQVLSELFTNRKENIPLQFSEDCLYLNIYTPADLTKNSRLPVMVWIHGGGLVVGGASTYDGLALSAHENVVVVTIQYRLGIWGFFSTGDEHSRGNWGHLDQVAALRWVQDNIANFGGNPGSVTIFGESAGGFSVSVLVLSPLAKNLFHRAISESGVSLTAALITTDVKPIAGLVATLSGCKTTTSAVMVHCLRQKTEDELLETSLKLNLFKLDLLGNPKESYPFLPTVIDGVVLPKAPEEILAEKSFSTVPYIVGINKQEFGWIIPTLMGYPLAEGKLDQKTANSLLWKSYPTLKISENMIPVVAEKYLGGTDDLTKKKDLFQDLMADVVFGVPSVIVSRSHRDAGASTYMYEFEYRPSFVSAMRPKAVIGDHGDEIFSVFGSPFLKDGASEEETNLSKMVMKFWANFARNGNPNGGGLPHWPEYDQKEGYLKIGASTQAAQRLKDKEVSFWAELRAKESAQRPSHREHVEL

[3] = molecular target: T4, membrane-associated hydrolase (KIAA1363) (UniProt Q8BLF1); assay: Proteome-wide serine hydrolase selectivity screening, KIAA1363; format: biochemical; details: selectivity screening
T4 sequence (Q8BLF1 1-408): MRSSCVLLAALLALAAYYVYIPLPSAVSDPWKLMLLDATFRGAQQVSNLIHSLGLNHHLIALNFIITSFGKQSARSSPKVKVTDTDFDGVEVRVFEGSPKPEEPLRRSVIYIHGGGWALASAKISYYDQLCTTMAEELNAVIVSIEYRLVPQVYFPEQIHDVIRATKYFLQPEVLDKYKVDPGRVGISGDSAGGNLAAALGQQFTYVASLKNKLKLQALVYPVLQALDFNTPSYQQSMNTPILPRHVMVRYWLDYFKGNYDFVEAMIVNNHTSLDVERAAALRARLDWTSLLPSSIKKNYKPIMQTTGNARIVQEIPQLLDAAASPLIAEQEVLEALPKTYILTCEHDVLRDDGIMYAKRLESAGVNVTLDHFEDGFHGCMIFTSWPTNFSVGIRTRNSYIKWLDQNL

[4] = % hydration or hemiketal formation by 1H and 13C NMR in solvent; format: physicochemical; details: for form in protic solution: at C4, not C2, 1H and 13C NMR
Text: The evaluation of Ki provides information about active site binding. […] More subtly, aldehyde 4g (and trifluoromethyl ketone 4i) was established to exist in protic solution as gem diols (at C4, not C2; ^1H and ^13C NMR, data in Examples below).

[5] = Table 1, purified recombinant rFAAH, pH 9.0, read-out: Rat FAAH inhibition Ki
[6] = Table 4, value ± error, read-out: Ki, inhibition results with calculated errors
[7] = CD3OD, at the C4 substituent carbonyl

Structure (SMILES)	Ki [1, 5]	Ki [1, 6]	also measured
CSc1coc(C(=O)CCCCCCc2ccccc2)n1 [Compound 4f, 1-(4-(Methylthio)oxazol-2-yl)-7-phenylheptan-1-one]	29 nM	29 ± 0.2 nM	–
O=C(O)c1cnc(C(=O)CCCCCCc2ccccc2)o1 [Compound 5d, reference compound]	–	–	IC50 (FAAH): 900 nM; IC50 [2]: > 100000 nM; IC50 [3]: > 100000 nM
Cc1coc(C(=O)CCCCCCc2ccccc2)n1 [Compound 4e, 1-(4-Methyloxazol-2-yl)-7-phenylheptan-1-one]	520 nM	520 ± 1 nM	–
CC(=O)c1coc(C(=O)CCCCCCc2ccccc2)n1 [Compound 4h, 1-(4-Acetyloxazol-2-yl)-7-phenylheptan-1-one]	2 nM	2 ± 0.07 nM	–
O=C(CCCCCCc1ccccc1)c1ncc(-c2ccccn2)o1 [Compound 5c, reference compound]	–	–	IC50 [3]: > 100000 nM
O=C(CCCCCCc1ccccc1)c1nc(I)co1 [Compound 4d, 1-(4-Iodooxazol-2-yl)-7-phenylheptan-1-one]	6.5 nM	6.5 ± 0.26 nM	–
O=C(CCCCCCc1ccccc1)c1nc(Cl)co1 [Compound 4c, 1-(4-Chlorooxazol-2-yl)-7-phenylheptan-1-one]	4 nM	4 ± 0.05 nM	–
O=C(CCCCCCc1ccccc1)c1nc(-c2ccccc2)co1 [Compound 4n, 7-Phenyl-1-(4-phenyloxazol-2-yl)heptan-1-one]	65 nM	65 ± 4.4 nM	–
O=C(CCCCCCc1ccccc1)c1nc(-c2cccnc2)co1 [Compound 4l, 7-Phenyl-1-(4-(pyridin-3-yl)oxazol-2-yl)heptan-1-one]	18 nM	18 ± 0.1 nM	% Hydration or Hemiketal Formation [4, 7]: >95% for COCF3; % Hydration or Hemiketal Formation ([4]; CDCl3): 33%
NC(=O)c1coc(C(=O)CCCCCCc2ccccc2)n1 [Compound 4p, 2-(7-Phenylheptanoyl)oxazole-4-carboxamide]	1.6 nM	1.6 ± 0.001 nM	–
O=C(CCCCCCc1ccccc1)c1nc(Br)co1 [Compound 4b, 1-(4-Bromooxazol-2-yl)-7-phenylheptan-1-one]	3 nM	3 ± 0.02 nM	–
COC(=O)c1coc(C(=O)CCCCCCc2ccccc2)n1 [Compound 4j, Methyl 2-(7-Phenylheptanoyl)oxazole-4-carboxylate]	3.4 nM	3.4 ± 0.05 nM	–
O=Cc1coc(C(=O)CCCCCCc2ccccc2)n1 [Compound 4g, 2-(7-Phenylheptanoyl)oxazole-4-carbaldehyde]	55 nM	55 ± 5 nM	% Hydration or Hemiketal Formation [4, 7]: >95% for CHO; % Hydration or Hemiketal Formation ([4]; CDCl3): 0%; form in protic solution [4]: gem diols
O=C(CCCCCCc1ccccc1)c1ncco1 [Compound 4a]	–	–	IC50 (FAAH): 2500 nM; IC50 [2]: 20 nM; IC50 [3]: 20000 nM
CN(C)C(=O)c1coc(C(=O)CCCCCCc2ccccc2)n1 [Compound 4r, N,N-Dimethyl-2-(7-phenylheptanoyl)oxazole-4-carboxamide]	35 nM	35 ± 0.1 nM	–
N#Cc1cnc(C(=O)CCCCCCc2ccccc2)o1 [Compound 5b, reference compound]	–	–	IC50 [2]: 20 nM; IC50 [3]: > 100000 nM
O=C(CCCCCCc1ccccc1)c1nc(C(=O)C(F)(F)F)co1 [Compound 4i, 7-Phenyl-1-(4-(2,2,2-trifluoroacetyl)oxazol-2-yl)heptan-1-one]	470 nM	470 ± 2 nM	form in protic solution [4]: gem diols
COc1coc(C(=O)CCCCCCc2ccccc2)n1 [Compound 4u, 1-(4-Methoxyoxazol-2-yl)-7-phenylheptan-1-one]	740 nM	740 ± 0.07 nM	–
CNC(=O)c1coc(C(=O)CCCCCCc2ccccc2)n1 [Compound 4q, N-Methyl-2-(7-phenylheptanoyl)oxazole-4-carboxamide]	1.8 nM	1.8 ± 0.005 nM	–

Reference: patent US20120302607A1, “C4-SUBSTITUTED ALPHA-KETO OXAZOLES” (The Scripps Research Institute, priority 2008, published 2012)
